Laboratory results published in ChEMBL document CHEMBL1131396, “Structure-activity studies related to ABT-594, a potent nonopioid analgesic agent: effect of pyridine and azetidine ring substitutions on nicotinic acetylcholine receptor binding affinity and analgesic activity in mice” (Bioorg Med Chem Lett, 1998).

How the values were obtained:
Mus musculus = species: Mus musculus; assay: Analgesic activity in a mouse hot plate assay; format: functional
[1] = biological target: Neuronal acetylcholine receptor; alpha4/beta2 (Rattus norvegicus, UniProt P09483+P12390); assay: Binding affinity towards Nicotinic acetylcholine receptor alpha4-beta2 in rat brain using [3H]-cytisine as radioligand; format: tissue-based
IMR-32 [2] = assay: Maximal response of compound at 1 uM concentration in an in vitro [86Rb+] release assay using IMR-32 cells; format: functional, Homo sapiens
IMR-32 [3] = assay: Maximal response of compound was determined in an in vitro [86Rb+] release assay using IMR-32 cells; format: functional, Homo sapiens
IMR-32 [4] = assay: Maximal response of compound at concentration 3 uM concentration in an in vitro [86Rb+] release assay using IMR-32 cells; format: functional, Homo sapiens
IMR-32 [5] = assay: Maximal response of compound at 10 uM concentration in an in vitro [86Rb+] release assay using IMR-32 cells; format: functional, Homo sapiens

Chain of Neuronal acetylcholine receptor; alpha4/beta2 (P09483 whole entry): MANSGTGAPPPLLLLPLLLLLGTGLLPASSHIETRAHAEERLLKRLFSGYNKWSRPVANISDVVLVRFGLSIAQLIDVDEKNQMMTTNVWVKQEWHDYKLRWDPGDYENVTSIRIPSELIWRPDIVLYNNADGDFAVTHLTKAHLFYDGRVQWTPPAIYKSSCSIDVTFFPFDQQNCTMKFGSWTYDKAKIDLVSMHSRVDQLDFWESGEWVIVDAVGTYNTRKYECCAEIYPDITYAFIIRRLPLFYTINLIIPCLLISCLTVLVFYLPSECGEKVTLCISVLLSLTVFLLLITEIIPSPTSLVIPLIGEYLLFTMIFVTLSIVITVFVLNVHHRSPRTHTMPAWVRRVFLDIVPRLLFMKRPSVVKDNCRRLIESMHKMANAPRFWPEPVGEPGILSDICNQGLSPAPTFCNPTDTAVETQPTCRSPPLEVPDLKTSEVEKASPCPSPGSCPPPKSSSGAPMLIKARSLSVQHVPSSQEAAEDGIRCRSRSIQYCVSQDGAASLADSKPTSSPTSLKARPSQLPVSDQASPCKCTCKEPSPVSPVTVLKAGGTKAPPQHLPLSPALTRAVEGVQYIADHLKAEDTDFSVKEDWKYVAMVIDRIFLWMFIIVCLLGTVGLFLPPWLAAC
Chain of Neuronal acetylcholine receptor; alpha4/beta2 (P12390 whole entry): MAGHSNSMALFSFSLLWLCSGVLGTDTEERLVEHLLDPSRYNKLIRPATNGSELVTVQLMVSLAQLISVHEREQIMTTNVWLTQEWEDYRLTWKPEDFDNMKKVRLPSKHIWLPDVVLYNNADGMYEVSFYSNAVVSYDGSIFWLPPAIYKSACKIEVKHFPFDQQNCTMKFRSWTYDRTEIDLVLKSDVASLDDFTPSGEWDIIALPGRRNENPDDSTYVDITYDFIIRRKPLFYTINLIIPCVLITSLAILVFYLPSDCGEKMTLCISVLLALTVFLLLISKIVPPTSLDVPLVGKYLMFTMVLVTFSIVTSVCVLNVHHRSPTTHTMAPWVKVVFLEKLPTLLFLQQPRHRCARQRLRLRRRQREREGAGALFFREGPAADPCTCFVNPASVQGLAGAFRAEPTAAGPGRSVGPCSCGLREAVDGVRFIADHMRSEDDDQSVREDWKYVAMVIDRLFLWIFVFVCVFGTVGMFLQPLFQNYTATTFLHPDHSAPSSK

Compound	MED (Mus musculus) [µM/kg]	Ki [1] [pM]	also measured
Fc1ncccc1OC[C@@H]1CCN1	1.9	–	–
Brc1ccc(OC[C@H]2CCN2)cn1	0.62	–	–
Clc1ncc(OC[C@@H]2CCN2)cc1Br	1.9	15	–
O=[N+]([O-])c1cncc(OC[C@@H]2CCN2)c1	62	–	–
Fc1ccc(OC[C@@H]2CCN2)cn1	6.2	57	–
Clc1ccncc1OC[C@H]1CCN1	>6.2	12000	–
Fc1ncccc1OC[C@H]1CCN1	>62	–	–
Clc1ncc(OC[C@@H]2CCN2)cc1-c1ccccc1	>6.2	22	Max response (IMR-32 [2]): 92%
N#Cc1ccc(OC[C@@H]2CCN2)cn1	62	–	–
Brc1ccc(OC[C@@H]2CCN2)cn1	>6.2	21	–
Clc1ncccc1OC[C@H]1CCN1	62	–	–
Clc1ccc(OC[C@@H]2CCN2)cn1	0.62	40	Max response (IMR-32 [3]): 166%
Cc1ncccc1OC[C@@H]1CCN1	>62	1360	–
Fc1ccc(OC[C@H]2CCN2)cn1	1.9	66	–
c1cncc(OC[C@@H]2CCN2)c1	>6.2	52	Max response (IMR-32 [3]): 113%
C=Cc1ccc(OC[C@@H]2CCN2)cn1	>62	1250	–
Clc1ccncc1OC[C@@H]1CCN1	>62	260000	–
Nc1cncc(OC[C@@H]2CCN2)c1	>62	82	–
COc1ccc(OC[C@H]2CCN2)cn1	>62	–	–
CC(=O)NCc1cncc(OC[C@@H]2CCN2)c1	>62	540	–
NCc1cncc(OC[C@@H]2CCN2)c1	>6.2	4400	–
Cc1ccc(OC[C@H]2CCN2)cn1	6.2	53	–
N#Cc1cncc(OC[C@@H]2CCN2)c1	>6.2	25	–

Compound	MED (Mus musculus) [µM/kg]	Ki [1] [pM]	also measured
Clc1ncccc1OC[C@@H]1CCN1	62	–	–
Cc1nc(Cl)ccc1OC[C@@H]1CCN1	>62	2400	–
Cc1ccc(OC[C@@H]2CCN2)cn1	0.62	57	–
CCc1ccc(OC[C@@H]2CCN2)cn1	>6.2	19000	–
Clc1cncc(OC[C@@H]2CCN2)c1	>6.2	42	–
Oc1cncc(OC[C@H]2CCN2)c1	>62	88	–
Clc1cncc(OC[C@H]2CCN2)c1	62	–	–
c1ccc(-c2ccc(OC[C@@H]3CCN3)cn2)cc1	>62	2300	–
CC1(C)CN[C@H]1COc1ccc(Cl)nc1	–	37000	–
c1ccc(-c2cncc(OC[C@@H]3CCN3)c2)cc1	>62	46	Max response (IMR-32 [4]): 45%
CCc1cncc(OC[C@@H]2CCN2)c1	>62	100	Max response (IMR-32 [5]): 90%
Cc1cncc(OC[C@@H]2CCN2)c1	>62	47	–
Fc1cncc(OC[C@@H]2CCN2)c1	6.2	76	–
CCOc1cncc(OC[C@@H]2CCN2)c1	62	39	–
FC(F)(F)c1cncc(OC[C@@H]2CCN2)c1	>19	490	–
Brc1cncc(OC[C@@H]2CCN2)c1	>19	180	–
CCCc1cncc(OC[C@@H]2CCN2)c1	62	39	–
COc1ccc(OC[C@@H]2CCN2)cn1	>62	1300	–
Cc1cncc(OC[C@H]2CCN2)c1	62	160	–
C[C@@H]1CN[C@H]1COc1ccc(Cl)nc1	–	7600	–
Clc1cc(OC[C@@H]2CCN2)cnc1Cl	0.62	23	–
Clc1ccc(OC[C@H]2CCN2)cn1 [TEBANICLINE]	0.62	40	–
